Ends that are not written are not given here.
Biological target: T1, PTPN3-PDZ (Homo sapiens, UniProt P26045)
T1 construct: GST (followed by a TEV cleavage site) (N, cleaved yes); made in house; host or cells: E. coli BL21 Star (DE3)
T1 sequence (P26045 510-582 limits assumed): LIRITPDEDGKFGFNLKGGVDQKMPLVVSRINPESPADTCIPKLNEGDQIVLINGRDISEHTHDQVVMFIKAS
Test: NMR titration (1H,15N HSQC chemical shift perturbation) of PBM peptide affinity for PTPN3-PDZ
Assay type: binding
Protocol: The affinities of HPV16E6 PBM, HPV18E6 PBM, p38γ PBM and HBVc PBM for PTPN3-PDZ were measured by NMR titration. We followed ^1H, ^15N chemical shift perturbations of PTPN3-PDZ signals in the ^1H-^15N HSQC spectra as a function of increasing concentrations of the PBM peptide to determine the dissociation constant (KD) (Fig. S1). […] The KD values are all in the same tenth-of-micromolar range for the viral PBMs and are close to the one of the cellular partner p38γ. […]
Briefly, the unlabeled peptides (stock solutions ranging from 2.8 to 5.7 mM) at pH 7.5 were added stepwise in a sample initially containing 240–260 μL of ^15N-labeled PTPN3-PDZ at a concentration of 95 or 149 μM. A series of ^1H, ^15N HSQC spectra was recorded for the different titration points. Chemical shift changes were calculated using the free PTPN3-PDZ signals as a reference. Chemical shift differences in the cross-peaks by titration were calculated using the relationship: Δδ = ((ΔδHN)^2 + (0.15 × ΔδN)^2)^0.5 where ΔδHN and ΔδN are changes in the ^1H and ^15N chemical shifts in ppm, respectively. […]

**Q.** For RQERLQRRETQV [HPV18E6 PBM], which Kd is on record?
**A.** Its Kd is 37 ± 20 µM.

Source: publication PMC6520365, “Structural and functional characterization of the PDZ domain of the human phosphatase PTPN3 and its interaction with the human papillomavirus E6 oncoprotein” (Scientific Reports, 2019)
